Data on two compounds can be found in patent publication US7632843B2, “Treatment of psychostimulant addiction” (priority 2002, dated 2009).

In one series the test system is male Wistar rats. The series is described as follows: Craving model: within session extinction and reinstatement paradigm in rats self-administering cocaine. The class given is in vivo, Rattus norvegicus. Here is the method: The study was performed in male Wistar rats (Rattus norvegicus) (the number is given above the columns in the figures) each weighing 180 to 210 g at the beginning of the experiment. The animals used in this experiment were maintained on a 12-hour dark-light cycle under controlled conditions at temperature 22 to 24° C., individually housed in standard cages with free excess to food and water.
In the tests the following active substances were used: • Cocaine hydrochloride • Bromocriptine mesylate • LEK-8829 (9,10-didehydro-N-methyl-N-(2-propynyl)-6-methyl-8β-aminometylergoline bimaleate) Operant Cage for Self-Injecting
The rats were trained and tested in standard operant test chambers (Coulbourn Instruments, Allentown, Pa., USA). Test chambers were built in a modular form and placed in sound-attenuated cubicles. Each was equipped with a ventilating fan that also served as sound source to mask external sound. Chambers were equipped with bulbs emitting white lights. Each chamber contained two nose-poke operanda mounted in 2 cm from the floor and 10 cm apart on the same wall. […] The cocaine solution was administered via the catheter. The latter connected the rat to a syringe ([…] (RAZEL, model A, 10 rpm), installed outside the cage. Time schedule of the experiments and data acquisition were controlled by a computer operated by a software package (Graphic State Notation 2 2.002-00; Coulbourn Instruments, Allentown, Pa., USA).
Each rat was anesthetized with the anaesthetic mixture (ketamine 60 mg/kg and xylazine 8 mg/kg) and implanted with an indwelling jugular catheter. […]
The rats were trained in self-injection of cocaine in daily, 2-hour self-administration sessions during their light cycle, every day except on Saturdays and Sundays. […] Each activation of the active opening was followed by a 30-second period of inactivation (time-out period when the light in the cage was switched off and activation of the active opening was only recorded but without any consequences). […]

In a further series the target is D1 receptors (Rattus norvegicus, UniProt P18901). The note with it: previous studies (Zivin et al 1996, 1998; Sprah et al 1999); cited from earlier work.
Series [1] deals with mice. In words: Inhibition of increased locomotor activity produced by cocaine injection. Format: in vivo. Here is the method: In the experiments in eight mice, intraperitoneal injection of LEK-8829 (in the form of bimaleate salt) inhibited the increased locomotor activity produced by intraperitoneal cocaine injection of 20 mg/kg.
Series [2] has as its system rats. In words: Cocaine self-administration model in rats, saccharin as comparative stimulant. The class given is in vivo. Particulars: for ED50: Rattus norvegicus, rats. As for the experimental part:
The action of the active substance LEK-8829 (in the form of bimaleate salt) at doses ranging from 0.25 to 2.5 mg/kg on sensations of pleasure induced by cocaine self-administration was assessed as the effect on the rate of cocaine self-administration in the experiments in five rats. For determination of the specificity of the effect on cocaine, a solution of saccharin was used as a comparative stimulant. […] In the range of medium doses, LEK-8829 caused an increase in overall input of cocaine self-administration in three animals.

Series [3] deals with Rhesus monkeys. In words: Drug discrimination study (cocaine 0.4 mg/kg vs physiological saline) in Rhesus monkeys. The class given is in vivo. Particulars: four Rhesus monkeys; doses 0.032 to 0.32 mg/kg; trained on cocaine 0.4 mg/kg vs saline. From the text: (§1) According to the data from literature, it is well known that rodents and primates are capable to discriminate most psychostimulants abused by humans. Therefore, a model of the specific drug discrimination in experimental animals is a suitable method for the assessment of new active substances in case of the abuse of psychostimulants.

Series [4] concerns mice. In words: Inhibition of spontaneous locomotor activity. Format: in vivo. The note with it: Mus musculus, ip, LEK-8829 bimaleate i.p.
For a further series, the system named is D2 receptors. The note with it: previous studies (Zivin et al 1996, 1998; Sprah et al 1999); cited from earlier work.
Series [5] has as its system rats. In words: Drug discrimination study (cocaine 10 mg/kg) in rats. The class given is in vivo.
Description: as §1

Series [6] relates to Rhesus monkeys. The series is described as follows: Cocaine self-administration versus food intake in Rhesus monkeys. Format: in vivo. As for the experimental part:
The effect of LEK-8829 (in the form of bimaleate salt) at doses of 0.032 to 0.32 mg/kg intramuscularly on cocaine self-administration in comparison with the effect on food intake (specificity of the effect on feelings of pleasure induced by cocaine, in comparison with non-specific sedative effect) was also tested in four Rhesus monkeys.

Read-outs that look alike come from different tables or passages of the source.

Sequence of D1 receptors (P18901 whole entry): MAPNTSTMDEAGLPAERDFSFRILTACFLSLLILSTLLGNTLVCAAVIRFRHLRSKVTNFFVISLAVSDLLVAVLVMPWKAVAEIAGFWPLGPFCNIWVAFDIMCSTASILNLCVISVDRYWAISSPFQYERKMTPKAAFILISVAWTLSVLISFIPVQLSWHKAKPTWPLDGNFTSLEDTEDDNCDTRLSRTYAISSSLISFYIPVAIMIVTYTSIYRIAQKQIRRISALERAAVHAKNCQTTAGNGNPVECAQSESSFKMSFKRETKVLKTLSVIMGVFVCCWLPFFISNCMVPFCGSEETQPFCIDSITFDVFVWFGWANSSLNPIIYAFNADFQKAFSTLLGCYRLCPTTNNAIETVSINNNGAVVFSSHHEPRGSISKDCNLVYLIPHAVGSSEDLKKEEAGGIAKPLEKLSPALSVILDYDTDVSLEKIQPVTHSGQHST

Take `CC(C)C[C@H]1C(=O)N2CCC[C@H]2[C@]2(O)O[C@](NC(=O)[C@@H]3C=C4c5cccc6[nH]c(Br)c(c56)C[C@H]4N(C)C3)(C(C)C)C(=O)N12` [Bromocriptine, reference compound]: the “appetitive behaviour induced by the substance itself” value in the series on male Wistar rats (bromocriptine 2 mg/kg i.v. before the cocaine injection) is listed as “induced the appetitive behaviour”.
As for `C#CCN(C)C[C@@H]1C=C2c3cccc4[nH]cc(c34)C[C@H]2N(C)C1` [LEK-8829, 9,10-didehydro-N-methyl-N-(2-propynyl)-6-methyl-8β-aminomethylergoline], on D1 receptors, the “effect on D1 receptors” value is listed as “agonist effects on D1 receptors”. The “ID50, inhibition of increased locomotor activity produced by cocaine” value in the series with mice [1] (eight mice, LEK-8829 bimaleate i.p., cocaine 20 mg/kg i.p.) is on record as 1.2 mg/kg. For the same compound, the “ratio of ED50/ID50 (spontaneous vs cocaine-increased locomotor activity)” value with mice [1] (mice, selectivity of the effect against cocaine) is given as 1.8. For the same compound, the ED50 was 2.16 mg/kg with rats [2] (non-specific effect, read-out: ED50, blocking effect on the input of saccharin); 0.17 mg/kg with rats [2] (read-out: ED50, blocking effect on cocaine self-administration); 2.1 mg/kg in the series with mice [4]. Further, in the series with rats [2] (five rats, dose range printed 0.2.5 to 1.55 mg/kg, four of five animals), the “effect on the dose/response curve of cocaine self-administration” value is listed as “produced a right shift of the curve in the ratio dose/response to cocaine”. In addition, the “discriminative stimulating effect of plain LEK-8829 in the sense of cocaine effect” value with Rhesus monkeys [3] is on record as “did not recognize the discriminative stimulating effect”. Further, the “effect on cocaine-induced self-injecting (activations of the active opening, last half-hour)” value in the series with male Wistar rats (LEK-8829 i.v. 0.25 and 0.5 mg/kg, 30 minutes before cocaine 2 mg/kg i.v., p<0.05 vs SAL+COC) is “statistically significantly reduced cocaine-induced self-injecting”. The “effect on relapse triggered by cocaine (activations of the active opening, last hour)” value in the series with male Wistar rats (i.p. 0.5 to 5 mg/kg, 30 minutes before cocaine 2 mg/kg i.v., p<0.05 vs SAL+COC) is listed as “statistically significantly reduced a relapse triggered by cocaine”. The “effect on D2 receptors” value with D2 receptors is “antagonistic effects on D2 receptors”. The “partial antagonism of cocaine effect” value in the series with rats [5] (rats, dose 2.5 mg/kg) is recorded as 56%. Further, in the series on rats [5] (six rats, doses 0.25 to 2.5 mg/kg), the “replacement of the discriminative stimulating effect of cocaine” value is on record as “did not replace the discriminative stimulating effect of cocaine”. In addition, the “inhibition of the discriminative stimulating effect of cocaine” value with rats [5] (six rats, doses 0.5 to 5 mg/kg) is given as “partly inhibited the discriminative stimulating effect of cocaine”. Besides, the “effect on the curve dose/input of cocaine at the largest dose” value in the series with Rhesus monkeys [6] (Rhesus monkeys, 0.32 mg/kg i.m.) is “blocked the effect of cocaine along the entire (ascending and descending) part of the curve”. Moreover, in the series on Rhesus monkeys [6] (Rhesus monkeys, 0.032 and 0.1 mg/kg i.m.), the “effect on the curve dose/input of cocaine at small and medium doses” value is recorded as “decreased the ascending part of the curve”. Moreover, in the series on Rhesus monkeys [6] (Rhesus monkeys, 0.032 to 0.32 mg/kg i.m.), the “effect on food intake” value is “only a minor inhibiting effect on food intake”. Also, the “effect on cocaine self-administration” value in the series with Rhesus monkeys [6] (four Rhesus monkeys, 0.032 to 0.32 mg/kg intramuscularly, dose-dependent) is on record as “inhibited cocaine self-administration”.
